# In ChEMBL document CHEMBL1201862, “PubChem BioAssay data set” (2004):
# Active and inactive are the calls of the source.
# Columns and labels:
# [1] = target: T1, Interleukin-8 (Homo sapiens, UniProt P10145); assay: Dose Response confirmation of uHTS small molecule hits for cystic fibrosis induced NFkb Inhibitors in a PAF-induced IL8 counterscreen.; type: functional; conditions: read-out: IC50_Mean
# T1 sequence (P10145 whole entry): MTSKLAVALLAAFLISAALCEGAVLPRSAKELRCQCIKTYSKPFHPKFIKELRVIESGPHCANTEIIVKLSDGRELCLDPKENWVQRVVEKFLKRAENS
# [2] = reduced cellular PGC1a acetyl-lysine signal – cell-based, cherry-picked samples, dose response (AID 720514); type: functional;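 note: potency may reflect raised or lowered acetylation signal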
# [3] = target: Ras and Rab interactor 1/Tyrosine-protein kinase ABL1 (Homo sapiens, UniProt P00519+Q13671); type: functional;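 note: biochemical TR-FRET dose-response test measuring inhibition of binding between Rin1 and Abl proteins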
# [4] = target: T2, Cysteine protease ATG4B (Homo sapiens, UniProt Q9Y4P1); type: functional;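 note: Fluorescence-based dose-response confirmation assay measuring inhibition of ATG4B activity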
# T2 sequence (Q9Y4P1 whole entry): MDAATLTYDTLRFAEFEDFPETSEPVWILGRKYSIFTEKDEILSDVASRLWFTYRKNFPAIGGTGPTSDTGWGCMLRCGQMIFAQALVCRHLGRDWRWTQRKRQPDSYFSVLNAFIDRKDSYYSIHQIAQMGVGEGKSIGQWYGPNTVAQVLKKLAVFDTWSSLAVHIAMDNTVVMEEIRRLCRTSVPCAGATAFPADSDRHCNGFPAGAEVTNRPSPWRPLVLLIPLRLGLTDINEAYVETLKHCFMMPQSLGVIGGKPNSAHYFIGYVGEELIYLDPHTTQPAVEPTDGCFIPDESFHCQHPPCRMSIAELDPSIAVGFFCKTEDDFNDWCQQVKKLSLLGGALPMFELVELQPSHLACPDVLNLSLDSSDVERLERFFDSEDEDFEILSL
# [5] = target: Phospholipase A2 (Homo sapiens, UniProt P04054); type: functional;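 note: confirmatory dose-response counterscreen on phospholipase A2, testing hits that came from an ultra-high-throughput screen for ATG4B inhibitors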
# Sequence of Phospholipase A2 (P04054 whole entry): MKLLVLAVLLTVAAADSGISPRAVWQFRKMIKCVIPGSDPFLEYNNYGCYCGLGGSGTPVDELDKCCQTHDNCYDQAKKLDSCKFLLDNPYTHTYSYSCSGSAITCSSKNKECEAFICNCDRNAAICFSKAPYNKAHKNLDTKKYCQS
# [6] = target: T3, High affinity choline transporter 1 (Homo sapiens, UniProt Q9GZV3); assay: human choline transporter blockers, potency – cell-based, 5-point CRC, membrane potential dye, dose response (AID 504840); type: functional
# T3 sequence (Q9GZV3 whole entry): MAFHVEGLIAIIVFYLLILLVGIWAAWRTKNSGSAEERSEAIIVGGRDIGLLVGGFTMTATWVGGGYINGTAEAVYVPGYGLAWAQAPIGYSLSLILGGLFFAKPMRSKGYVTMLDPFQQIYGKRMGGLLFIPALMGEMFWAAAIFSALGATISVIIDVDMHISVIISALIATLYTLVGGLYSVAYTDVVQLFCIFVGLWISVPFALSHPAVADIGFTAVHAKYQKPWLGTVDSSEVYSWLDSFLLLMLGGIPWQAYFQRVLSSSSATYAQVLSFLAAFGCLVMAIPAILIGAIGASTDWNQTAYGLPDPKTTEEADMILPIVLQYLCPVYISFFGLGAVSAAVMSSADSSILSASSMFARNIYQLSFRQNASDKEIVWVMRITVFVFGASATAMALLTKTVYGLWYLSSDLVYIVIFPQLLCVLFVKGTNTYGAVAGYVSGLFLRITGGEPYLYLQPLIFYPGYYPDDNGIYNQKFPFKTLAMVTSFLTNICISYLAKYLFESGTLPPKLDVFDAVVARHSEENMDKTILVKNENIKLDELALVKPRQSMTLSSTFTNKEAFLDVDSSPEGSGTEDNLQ
# [7] = target: T3, High affinity choline transporter 1; assay: human choline transporter blockers, potency – cell-based, 10-point CRC, membrane potential dye, dose response (AID 588401); type: functional;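 note: membrane potential dye fluorescence of choline-evoked depolarization via CHT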
# [8] = activation of miR-122 Renilla sensor silencing – cell-based, Huh7 psiCHECK-miR122, Renilla luciferase, cherry-picked, dose response (AID 651956); type: functional;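 note: huh7 hepatoma cells stably carrying a psiCHECK-2 miR-122 sensor plasmid; renilla luciferase signal reporting endogenous miR-122 activity after 48 h compound exposure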
# [9] = target: Paired box protein Pax-8 (Homo sapiens, UniProt Q06710); assay: PAX8 transcriptional activity inhibition in RMG-I – RMG-I cells, luciferase, cherry-pick, dose response (AID 687027); type: functional, cell-based;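 note: luciferase reporter driven by Pax8 target thyroperoxidase promoter measured by SteadyGlo luminescence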
# Sequence of Paired box protein Pax-8 (Q06710 whole entry): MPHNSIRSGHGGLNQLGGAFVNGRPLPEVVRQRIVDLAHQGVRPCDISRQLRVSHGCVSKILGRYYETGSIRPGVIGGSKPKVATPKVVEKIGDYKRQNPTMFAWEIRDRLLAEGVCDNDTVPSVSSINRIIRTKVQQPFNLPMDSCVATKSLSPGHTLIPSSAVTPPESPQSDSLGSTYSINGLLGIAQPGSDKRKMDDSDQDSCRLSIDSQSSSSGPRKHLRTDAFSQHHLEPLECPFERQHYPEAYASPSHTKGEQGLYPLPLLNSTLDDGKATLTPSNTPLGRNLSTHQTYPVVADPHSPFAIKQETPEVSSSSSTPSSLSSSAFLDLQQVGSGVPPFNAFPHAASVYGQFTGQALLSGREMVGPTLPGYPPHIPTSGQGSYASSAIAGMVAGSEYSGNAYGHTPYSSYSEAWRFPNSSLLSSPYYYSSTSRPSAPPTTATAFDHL
# [10] = CMV-driven luciferase expression suppression in HEK293 – cell-based, luminescence, dry powder, counter-screen for Pax8 inhibitor project, dose response (AID 743020); type: functional
# [11] = A549 cell cytotoxicity, dose response, cytotoxicity control, plate reader, cherry-pick, antagonist series (AID 743412); type: functional, cell-based
# [12] = toxicity toward HepG2 liver cells – cell-based, plate reader, cherry-pick, antagonist series, cytotoxicity control, dose response (AID 743416); type: functional
# [13] = blockers of bursicon-stimulated LGR2 cAMP reporter – cell-based, HEK293, CRE-luciferase reporter, cherry pick, set 2, dose response (AID 743343); type: functional;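 note: transfected cells were stimulated with diluted bursicon conditioned medium after compound addition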
# [14] = blockade of melanocortin 4 receptor signaling – cell-based, plate reader, cherry pick, counter-screen for LGR2 antagonist project, dose response (AID 743444); type: functional;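 note: transfected HEK 293 cells stimulated with alpha-MSH peptide; potency of inhibitors of the alpha-MSH evoked signal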
# [15] = viability loss in HEK293 cells – cell-based, plate reader, cherry-picked samples, cytotoxicity control, dose response (AID 743446); type: functional
# [16] = target: T4, Fatty acid synthase (Homo sapiens, UniProt P49327); assay: inhibition of human FAS-TE enzyme activity – biochemical, endpoint fluorescence intensity, uHTS hits, dose response (AID 624327); type: functional;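 note: fluorescence from hydrolysis of an O-methyl fluorescein acyl ester substrate by the enzyme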
# T4 sequence (P49327 whole entry): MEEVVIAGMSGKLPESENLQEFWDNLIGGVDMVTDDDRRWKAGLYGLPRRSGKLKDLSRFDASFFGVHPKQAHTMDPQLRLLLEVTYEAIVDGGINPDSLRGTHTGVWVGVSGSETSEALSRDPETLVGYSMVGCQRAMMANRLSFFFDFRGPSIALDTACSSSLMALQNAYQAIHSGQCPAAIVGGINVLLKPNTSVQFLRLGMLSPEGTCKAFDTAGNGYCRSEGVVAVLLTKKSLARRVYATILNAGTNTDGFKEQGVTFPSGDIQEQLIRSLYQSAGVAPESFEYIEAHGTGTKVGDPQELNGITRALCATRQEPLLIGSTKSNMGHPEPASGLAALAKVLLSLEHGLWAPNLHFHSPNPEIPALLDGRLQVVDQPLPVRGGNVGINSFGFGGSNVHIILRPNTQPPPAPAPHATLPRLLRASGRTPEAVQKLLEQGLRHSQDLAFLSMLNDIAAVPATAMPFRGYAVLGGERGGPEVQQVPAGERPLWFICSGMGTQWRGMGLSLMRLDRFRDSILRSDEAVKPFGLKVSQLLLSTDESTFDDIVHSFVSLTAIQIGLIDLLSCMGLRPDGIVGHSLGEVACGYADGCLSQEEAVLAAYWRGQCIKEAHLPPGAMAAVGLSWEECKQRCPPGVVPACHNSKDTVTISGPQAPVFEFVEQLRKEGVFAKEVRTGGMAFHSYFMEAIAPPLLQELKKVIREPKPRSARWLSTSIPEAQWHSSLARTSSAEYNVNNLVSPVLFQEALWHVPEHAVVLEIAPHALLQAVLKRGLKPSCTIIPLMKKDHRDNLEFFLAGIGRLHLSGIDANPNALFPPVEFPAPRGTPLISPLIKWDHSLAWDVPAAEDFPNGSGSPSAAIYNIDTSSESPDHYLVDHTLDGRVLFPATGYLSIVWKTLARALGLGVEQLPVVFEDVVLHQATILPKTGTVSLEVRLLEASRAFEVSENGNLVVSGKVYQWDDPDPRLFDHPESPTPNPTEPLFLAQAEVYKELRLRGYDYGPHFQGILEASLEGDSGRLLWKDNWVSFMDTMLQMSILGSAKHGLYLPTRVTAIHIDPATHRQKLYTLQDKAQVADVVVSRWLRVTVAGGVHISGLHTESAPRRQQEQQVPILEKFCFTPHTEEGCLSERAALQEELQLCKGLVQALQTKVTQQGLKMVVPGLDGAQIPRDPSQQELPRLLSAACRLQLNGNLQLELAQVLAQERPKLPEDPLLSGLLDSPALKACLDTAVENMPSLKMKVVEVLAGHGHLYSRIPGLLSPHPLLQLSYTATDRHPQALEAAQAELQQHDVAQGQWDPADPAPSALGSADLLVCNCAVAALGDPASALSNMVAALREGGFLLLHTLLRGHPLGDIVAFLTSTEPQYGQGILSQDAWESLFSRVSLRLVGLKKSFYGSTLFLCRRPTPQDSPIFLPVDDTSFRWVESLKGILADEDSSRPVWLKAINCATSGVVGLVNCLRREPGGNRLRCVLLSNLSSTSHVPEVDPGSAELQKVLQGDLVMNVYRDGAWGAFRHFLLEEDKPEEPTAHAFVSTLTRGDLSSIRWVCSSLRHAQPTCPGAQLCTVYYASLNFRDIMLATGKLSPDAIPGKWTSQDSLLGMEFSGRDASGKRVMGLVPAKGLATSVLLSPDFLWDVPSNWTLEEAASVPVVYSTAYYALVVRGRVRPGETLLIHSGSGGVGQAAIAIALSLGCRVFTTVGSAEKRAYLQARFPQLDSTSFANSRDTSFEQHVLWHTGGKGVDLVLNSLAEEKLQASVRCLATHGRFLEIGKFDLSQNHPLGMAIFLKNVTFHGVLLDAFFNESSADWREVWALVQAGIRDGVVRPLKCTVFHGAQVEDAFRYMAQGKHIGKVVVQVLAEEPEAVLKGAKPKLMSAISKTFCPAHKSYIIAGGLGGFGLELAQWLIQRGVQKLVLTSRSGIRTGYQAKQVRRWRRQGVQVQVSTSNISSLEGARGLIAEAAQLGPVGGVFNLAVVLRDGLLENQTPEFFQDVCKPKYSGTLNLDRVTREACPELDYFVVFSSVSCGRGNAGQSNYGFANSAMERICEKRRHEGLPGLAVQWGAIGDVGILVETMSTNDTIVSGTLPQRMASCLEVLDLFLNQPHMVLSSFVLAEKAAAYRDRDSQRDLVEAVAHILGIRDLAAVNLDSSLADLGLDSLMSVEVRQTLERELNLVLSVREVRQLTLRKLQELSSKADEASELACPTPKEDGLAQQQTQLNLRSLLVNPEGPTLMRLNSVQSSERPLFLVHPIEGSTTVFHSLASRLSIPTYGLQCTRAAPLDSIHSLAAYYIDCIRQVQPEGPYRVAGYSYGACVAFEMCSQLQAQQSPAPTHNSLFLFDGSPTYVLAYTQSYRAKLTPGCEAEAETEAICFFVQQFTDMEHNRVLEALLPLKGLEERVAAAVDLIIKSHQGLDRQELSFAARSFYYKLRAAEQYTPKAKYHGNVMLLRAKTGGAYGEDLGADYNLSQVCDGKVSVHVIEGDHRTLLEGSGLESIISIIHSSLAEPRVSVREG
# [17] = target: T4, Fatty acid synthase; assay: inhibition of human FAS-TE enzyme activity – biochemical, kinetic fluorescence intensity, dose response (AID 624326); type: functional;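 note: rate of fluorescence rise from hydrolysis of a fluorogenic O-methyl fluorescein ester substrate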
# [18] = target: Mu-type opioid receptor (Homo sapiens, UniProt P35372); type: functional, cell-based;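 note: U2OS cells with beta-arrestin recruitment to OPRM1 by beta-gal complementation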
# Sequence of Mu-type opioid receptor (P35372 whole entry): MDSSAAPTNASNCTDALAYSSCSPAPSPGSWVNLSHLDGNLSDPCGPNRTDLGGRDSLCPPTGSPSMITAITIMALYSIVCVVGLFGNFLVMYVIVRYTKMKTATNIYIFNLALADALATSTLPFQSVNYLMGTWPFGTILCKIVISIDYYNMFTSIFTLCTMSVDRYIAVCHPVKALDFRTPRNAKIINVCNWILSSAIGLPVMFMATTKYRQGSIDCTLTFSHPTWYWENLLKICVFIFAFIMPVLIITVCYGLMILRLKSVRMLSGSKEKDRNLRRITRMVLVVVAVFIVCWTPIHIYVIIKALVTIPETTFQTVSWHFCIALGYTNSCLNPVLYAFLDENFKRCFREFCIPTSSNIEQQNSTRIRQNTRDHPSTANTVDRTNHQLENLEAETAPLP
# [19] = target: 5-hydroxytryptamine receptor 2A (Mus musculus, UniProt P35363); type: functional, cell-based;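 note: CHO-K1 cells with tagged receptor and beta-arrestin; agonist potency measured as compound-induced activation of the receptor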
# Sequence of 5-hydroxytryptamine receptor 2A (P35363 whole entry): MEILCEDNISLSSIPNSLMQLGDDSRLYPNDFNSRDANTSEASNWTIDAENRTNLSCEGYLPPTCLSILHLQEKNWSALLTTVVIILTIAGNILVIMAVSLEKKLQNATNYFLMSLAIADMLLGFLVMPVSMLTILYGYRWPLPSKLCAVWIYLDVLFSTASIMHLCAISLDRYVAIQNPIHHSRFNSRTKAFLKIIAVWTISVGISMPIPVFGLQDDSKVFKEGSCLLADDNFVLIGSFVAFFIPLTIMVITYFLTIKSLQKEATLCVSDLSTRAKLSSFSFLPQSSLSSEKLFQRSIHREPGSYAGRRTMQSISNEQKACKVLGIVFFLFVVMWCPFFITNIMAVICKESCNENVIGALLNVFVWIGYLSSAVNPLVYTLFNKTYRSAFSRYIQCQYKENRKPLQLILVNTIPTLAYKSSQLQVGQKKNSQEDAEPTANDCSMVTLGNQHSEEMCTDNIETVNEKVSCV
compound,measurement,setting,value
Nc1ncnc(NCc2ccc(F)cc2)c1[N+](=O)[O-],IC50,[1],> 79 µM (inactive)
same,AC50,[2],3.1 µM (active)
CC[C@]12c3[nH]c4ccc(OC)cc4c3CCN1C(=O)C(CC(=O)NCC13C[C@H]4C[C@@H](C1)C[C@@H](C3)C4)C[C@@H]2C(=O)N1CCN(C(=O)C2CC2)CC1 (stereo partly drawn),IC50,[3],12.9 µM (inactive)
COC(=O)c1c(NC(=O)C2Cc3ccccc3C(=O)O2)sc2c1CCCC2 (stereo not drawn),IC50,[4],1.62 µM (active)
same,IC50,[5],1.02 µM (active)
CC(=O)OC1CC2(C)/C(=N\O)CCC2C2CCc3cc(O)ccc3C12 (stereo not drawn),IC50,[6],0.953 µM (active)
same,IC50,[7],0.605 µM (active)
COc1ccc(C#Cc2ccc3c(c2)O[C@H](CN(C)C(=O)CN2CCOCC2)[C@H](C)CN([C@H](C)CO)S3(=O)=O)cc1,AC50,[8],12.3 µM (active)
O=C(C[C@H]1C[C@@H]2c3cc(NS(=O)(=O)c4ccc(F)cc4)ccc3O[C@@H]2[C@@H](CO)O1)NCc1ccc(Oc2ccccc2)cc1,AC50,[9],8.32 µM (active)
same,AC50,[10],40.6 µM (active)
same,AC50,[11],19.3 µM (active)
same,AC50,[12],20.9 µM (active)
same,AC50,[13],26 µM (active)
same,AC50,[14],25.6 µM (active)
same,AC50,[15],22.3 µM (active)
COc1cc(C(=O)N/N=C/c2coc3ccc(Cl)cc3c2=O)ccc1O,IC50,[4],3.35 µM (active)
same,IC50,[5],16.2 µM (active)
same,IC50,[16],18.5 µM (active)
same,IC50,[17],7.45 µM (active)
CNCC(=O)c1ccc(O)c(O)c1 [ADRENALONE],EC50,[18],92.4 µM (inactive)
same,EC50,[19],4.04 µM (active)
CCCCC[C@H](O)/C=C/[C@@H]1[C@@H](C/C=C\CCCC(=O)O)[C@@H](O)C[C@H]1O [DINOPROST TROMETHAMINE],IC50,[6],2.94 µM (active)
same,IC50,[7],2.77 µM (active)
